Laboratory results reported in US20060211687A1, “Potassium salt of an hiv integrase inhibitor” (priority 2003, published 2006).

Tests used:
[1] = pharmacokinetics in animal models; assay type: in vivo; details: over the free base
[2] = oral bioavailability and pharmacokinetics in rats; assay type: in vivo; details: relative to amorphous and crystalline Compound A
stability of the salt = assay type: physicochemical; details: compared with the sodium salt of Compound A
hygroscopicity = assay type: physicochemical; details: compared with the sodium salt of Compound A
[3] = oral bioavailability and pharmacokinetics in dogs; assay type: in vivo; details: relative to amorphous and crystalline Compound A
solubility in water = assay type: physicochemical; details: compared to the free base
[4] = solubility in ethanol containing water; assay type: physicochemical; details: ethanol containing 1 to 5 vol. % and 10 vol% water
Experimental: Experiments have been conducted in which the Compound A K salt ethanolate of the present invention was slurried in ethanol containing 1, 2, 3, 4, 5 and 10 vol. % water, followed by measurement of the XRPD patterns of the collected crystals. In addition, the solubility of the Compound A K salt ethanolate was also determined for the 1 to 5 vol. % and 10 vol% water in ethanol solutions. […] Accordingly, it is believed that the crystalline ethanolate hydrate material of the present invention exists as a water-ethanol isomorphic co-solvate. […] In accordance with these experimental results, the crystalline potassium salt ethanolate of Compound A of the invention can contain water as a co-solvate up to a maximum water content, beyond which the crystalline salt (as shown by the XRPD and solubility results described above) changes to another form.

[5] = test system: HIV infection of T-lymphoid cells; experiment: inhibition of acute HIV infection of T-lymphoid cells; assay type: cell-based; details: in accordance with Vacca et al.
HIV integrase = molecular target: T1, HIV integrase (Human immunodeficiency virus type 1 group M subtype B, UniProt P04585); experiment: integrase inhibition assay in which strand transfer is catalyzed by recombinant integrase; assay type: biochemical; details: assay of Example 193 of WO 02/30930
T1 construct: strand transfer is catalyzed by recombinant integrase
Text: Compound A is an inhibitor of HIV integrase. […] The strand transfer assay is described in Example 193 of WO 02/30930.

[6] = listed as crystalline potassium salt of Compound A

CNC(=O)c1cc(F)ccc1CNC(=O)c1nc(N2CCCCS2(=O)=O)c2cccnc2c1[O-].[K+] [potassium salt of Compound A, Potassium 5-(1,1-dioxido-1,2-thiazinan-2-yl)-7-[({4-fluoro-2-[(methylamino)-carbonyl]benzyl}amino)carbonyl]-1,6-naphthyridin-8-olate]
pharmacokinetics [1]: improved | AUC [2]: improved | Cmax [2]: improved | oral bioavailability [2]: superior | stability (stability of the salt): more stable | stability (stability of the salt; [6]): improved | hygroscopicity (hygroscopicity): significantly less hygroscopic | hygroscopicity (hygroscopicity; [6]): less | AUC [3]: improved | Cmax [3]: improved | oral bioavailability [3]: superior | solubility in water (solubility in water): significantly more soluble

CNC(=O)c1cc(F)ccc1CNC(=O)c1nc(N2CCCCS2(=O)=O)c2cccnc2c1[O-].[K+] [Salt A1, Potassium 5-(1,1-dioxido-1,2-thiazinan-2-yl)-7-[({4-fluoro-2-[(methylamino)carbonyl]benzyl}amino)carbonyl]-1,6-naphthyridin-8-olate]
solubility trend [4]: increasing solubility from 1 to 5 vol % reversed to lower solubility at 10 vol. %

CNC(=O)c1cc(F)ccc1CNC(=O)c1nc(N2CCCCS2(=O)=O)c2cccnc2c1O [Compound A, 5-(1,1-dioxido-1,2-thiazinan-2-yl)-N-{4-fluoro-2-[(methylamino)carbonyl]benzyl}-8-hydroxy-1,6-naphthyridine-7-carboxamide]
inhibition of acute HIV infection of T-lymphoid cells [5]: active | inhibition of HIV integrase (strand transfer) (HIV integrase): potent inhibitor
